What was measured:
MDA-MB-231 = test: MTT cell viability assay; type: cell-based; conditions: Homo sapiens, Breast, 48 h, ± SD of triplicates
Method: (§1) In addition, the morphological changes in 12b-treated cancer cell lines at concentrations of 6.25 and 12.50 µM are shown in Figure 6.
(§2) According to the procedures of Skehan et al. (with minor modifications), the cancer or normal cells were seeded in a 96-well plate (100 µL/well). After overnight incubation at 37 °C and 5% CO2, the cells were incubated with 50 µM of each tested compound or DMSO (0.5% v/v). After 48 h of incubation, MTT (3-(4,5-dimethylthiazoyl)-2,5-diphenyl-tetrazolium bromide) 5 mg/mL Phosphate-Buffered Saline (PBS) was added, and the plate was incubated for 4 h. After that, acidified sodium dodecyl sulfate (SDS) solution (10% SDS containing 0.01N HCl in 1× PBS) was used to solubilize formazan crystals. The absorbance was measured after 14 h of incubation at λ570–630 nm by a Biotek plate reader (Gen5™).

MCF-7 = test: MTT cell viability assay; type: cell-based; conditions: Homo sapiens, MCF7, Breast, 48 h, ± SD of triplicates
Method: as §1, §2

A2780CP = test: MTT cell viability assay; type: cell-based; conditions: Homo sapiens, A2780C/P, Ovarian, 48 h, ± SD of triplicates
Method: as §1, §2

HT-29 = test: MTT cell viability assay; type: cell-based; conditions: Homo sapiens, Colon, 48 h, ± SD of triplicates
Method: as §1, §2

A2780 = test: MTT cell viability assay; type: cell-based; conditions: Homo sapiens, Ovarian, 48 h, ± SD of triplicates
Method: as §1, §2

HepG2 = test: MTT cell viability assay; type: cell-based; conditions: Homo sapiens, Liver, 48 h, ± SD of triplicates
Method: as §1, §2

SKOV-3 = test: MTT cell viability assay; type: cell-based; conditions: Homo sapiens, SK-OV-3, Ovarian, 48 h, ± SD of triplicates
Method: as §1, §2

cancer cells = test: MTT anti-proliferative test of des-NO-releasing compounds; type: cell-based, human; conditions: at concentrations as high as 50 µM
Method: as §1, §2

Structure (SMILES) | IC50 (MDA-MB-231) [µM] | IC50 (MCF-7) [µM] | IC50 (A2780CP) [µM] | IC50 (HT-29) [µM] | IC50 (A2780) [µM] | IC50 (HepG2) [µM] | IC50 (SKOV-3) [µM] | inhibition of the proliferation of cancer cells (cancer cells)
CNC(=O)c1cc(Oc2ccc(NC(=O)Nc3ccc(Cl)c(C(F)(F)F)c3)cc2)ccn1 [Sorafenib, sorafenib, reference compound] | 16.6 ± 0.3 | 5.1 ± 0.4 | 15.2 ± 0.1 | 11 ± 0.2 | 10.5 ± 0.5 | 14 ± 0.4 | 16.9 ± 0.2 | –
Cc1nn(-c2ccc(Br)cc2)c2nc(C(F)(F)F)nc(Nc3ccc(N)cc3)c12 [15b, N1-(1-(4-bromophenyl)-3-methyl-6-(trifluoromethyl)-1H-pyrazolo[3,4-d]pyrimidin-4-yl)benzene-1,4-diamine] | – | – | – | – | – | – | – | did not inhibit the proliferation of cancer cells
Nc1ccc(Nc2nc(C(F)(F)F)nc3c2cnn3-c2ccc(Br)cc2)cc1 [15a, N1-(1-(4-bromophenyl)-6-(trifluoromethyl)-1H-pyrazolo[3,4-d]pyrimidin-4-yl)benzene-1,4-diamine] | – | – | – | – | – | – | – | did not inhibit the proliferation of cancer cells

— paper PMC8880564, “Design, Synthesis, and Biological Evaluation of a Novel VEGFR-2 Inhibitor Based on a 1,2,5-Oxadiazole-2-Oxide Scaffold with MAPK Signaling Pathway Inhibition” (Pharmaceuticals, 2022)
